Assay results from US11911442B2, “Use of soluble pro(renin) receptor to treat metabolic disorders and related conditions” (priority 2017, dated 2024).

Legend:
PRR = PRR protein expression and sPRR release in mpkCCD cells; type: cell-based, murine; details: 10 μM, 24 h
Procedure: The effect of […] on PRR expression was tested in […] cells. These cells were grown to confluence in six-well plates. After 12-h serum deprivation, the cells were treated with vehicle or 10 μM TO901317 for 24 h and then were harvested for analysis of PRR expression and sPRR release. In a separate experiment, […] cells at 50% density were transiently transfected with a construct containing the luciferase gene under the control of the 2,016-bp 5' flanking region of the PRR gene. Upon confluence, the transfected cells were treated for 24 h with vehicle or 10 μM TO901317 and then were harvested for analysis of luciferase activity. Urinary or medium sPRR was determined using a commercially sPRR enzyme immunoassay (EIA) kit (catalog no. JP27782; Immuno-Biological Laboratories) according to the manufacturer's instructions. Renal tissues were lysed and subsequently sonicated. Protein concentrations were determined using Coomassie reagent. Forty micrograms of protein from each sample were denatured in boiling water, separated by SDS/PAGE, and transferred onto nitrocellulose membranes. Blots were blocked 1 h with 5% nonfat dry milk in Tris-buffered saline (TBS), followed by overnight incubation with primary antibody. […] The blots were quantitated by using Image-Pro Plus (Media Cybernetics). […]

pGL3-PRR = assay: PRR-luciferase (pGL3-PRR) reporter assay in mpkCCD cells; type: cell-based, murine; details: transfected mpkCCD cells, 10 μM, 24 h
Procedure: The effect of […] on PRR expression was tested in […] cells. These cells were grown to confluence in six-well plates. After 12-h serum deprivation, the cells were treated with vehicle or 10 μM TO901317 for 24 h and then were harvested for analysis of PRR expression and sPRR release. In a separate experiment, […] cells at 50% density were transiently transfected with a construct containing the luciferase gene under the control of the 2,016-bp 5' flanking region of the PRR gene. Upon confluence, the transfected cells were treated for 24 h with vehicle or 10 μM TO901317 and then were harvested for analysis of luciferase activity. Genomic DNA was extracted from rat tail using a Tissue DNA kit ([…]-01; Promega). A 2,016-bp fragment of the 5' flanking region of the PRR gene (GenBank accession no. NM_001007091; 1,941±75 bp) was amplified from the rat genomic DNA by PCR and subcloned to the pGL3-Basic reporter vector (Promega) using NheI and BgIII restriction sites; this construct was termed “pGL3-PRR.” A 2,084-bp fragment of the 5' flanking region of the AQP2 gene (GenBank accession no. […] Qiagen). […] The vehicle-treated group served as a control. The luciferase activities were measured using a luciferase assay system (Promega), and luminescence was detected by using an illuminometer (BMG FLUOstar OPTIMA).

C57BL6 mice = assay: TO901317-induced diabetes insipidus in C57/BL6 mice; type: in vivo, mouse
Procedure: FIGS. 9A-9I show an initial characterization of diuretic and PRR-inhibitory actions of TO901317 in vivo and in vitro. […] The mice receiving vehicle treatment served as a control. At the end of experiment, 24-h urine collection was performed, followed by analysis of urinary sPRR excretion by ELISA and renal PRR expression by immunoblotting. (A) Urine output (n=30 mice per group). (B) Urinary osmolality (n=15 mice per group). (C) Immunoblotting analysis of renal PRR expression (n=15 mice per group). (D) Densitometric analysis of the immunoblot in C. (E) ELISA analysis of urinary sPRR (n=8 mice per group). (F-I) The effect of TO901317 on PRR expression in cultured CD cells. mpkCCD cells were exposed to vehicle or 10 μM TO901317 for 24 h. The cell lysates were subjected to immunoblotting analysis of PRR protein expression, and the medium was assayed for sPRR concentration by using ELISA and normalized by protein content. In a separate experiment, the cells were transfected with a PRR-luciferase construct, allowed to grown to confluence, and then were treated with vehicle or 10 μM TO901317 for 24 h. (F) Immunoblotting analysis of PRR (n=15 per group). (G) Densitometric analysis of the immunoblot in […]. (H) ELISA analysis of medium sPRR (n=10 per group). (I) The luciferase assay (n=5 per group).
(A) Urine output (n=8 mice per group). (B) Water intake (n=8 mice per group). (C) Water balance (n=8 mice per group). (D) Urinary osmolality (n=8 mice per group). (E) Het (n=8 mice per group).
AQP2 expression was analyzed by immunoblotting and immunostaining. Urinary renin activity was determined by measuring AngI generation, and urinary prorenin/renin concentration was determined by ELISA. (A) Immunoblotting analysis of AQP2 expression (n=15 mice per group). (B) Densitometric analysis of the immunoblots in A. (C) Urinary renin activity (n=8 mice per group). (D) Urinary prorenin/renin excretion (n=8 mice per group). (E) Schematic illustration of the mechanism by which the LXR agonist TO091317 (TO) suppresses PRR transcription and induces DI. LXRs bound to TO091317 function as a […] repressor for the PRR gene, leading to a reduced PRR/sPRR level that decreases AQP2 expression, ultimately causing DI.
Besides their well-recognized role in regulating lipid and glucose metabolism, LXRs are potential regulators of the RAS and fluid balance. […] In the initial experiment, the effects of the LXR agonist TO901317 on fluid homeostasis and on renal PRR and urinary renin levels were examined in mice. A 7-d treatment with TO901317 in C57BL6 mice reduced body weight (32.36±0.63 vs. 28.61±0.36 g, P<0.05) and food intake (4.08±0.19 vs. 3.54±0.15 g, P<0.05), although to a lesser extent. […] The expression of renal PRR protein and the excretion of urinary sPRR were examined by immunoblotting and ELISA, respectively.
In the subsequent experiment, a more detailed analysis of TO901317-induced DI was performed and the causal role of suppressed renal PRR was further examined in this phenomenon. This experiment comprised three groups: control, TO901317-treated, and TO901317+sPRRHis-treated mice. […] Of note, water balance was determined by subtracting urine volume from water intake. AQP2, a major water channel on the apical membrane of the CD, plays a key role in determining urine-concentrating capability. […] ELISA was also performed to determine the prorenin/renin concentration in the urine. Although urinary prorenin/renin excretion was suppressed by TO901317, it was unaffected by sPRRHis (FIG. 11D). […] FIG. 11E provides a schematic illustration of the mechanism by which TO901317 induces DI. Upon binding to TO901317, LXRs function as a transcriptional repressor to inactivate PRR transcription. The reduced PRR/sPRR levels down-regulate AQP2 expression, leading to DI.
Male 10- to 12-wk-old SD rats and C57BL6 mice were purchased from Charles River Laboratories and the Jackson Laboratory, respectively. All animals […] 50 mg kg body weight-1·d-1. […]

## O=S(=O)(c1ccccc1)N(CC(F)(F)F)c1ccc(C(O)(C(F)(F)F)C(F)(F)F)cc1 [TO901317]
PRR; ELISA
  reduction of medium sPRR: 60%
PRR; immunoblotting
  reduction of PRR protein expression: 85%
pGL3-PRR
  suppression of luciferase activity (pGL3-PRR): 76%
C57BL6 mice; C57/BL6 mice, TO901317 alone, 7 d
  urine output, water intake, water balance, urinary osmolality, Hct: polyuria, polydipsia, decreased water balance, hypoosmotic urine, and plasma volume contraction
C57BL6 mice; C57BL6 mice, 7-d treatment
  urinary osmolality: hypoosmotic urine
  urine output: severe polyuria
C57BL6 mice; C57BL6 mice, 7-d treatment, ELISA
  urinary sPRR excretion: suppressed consistently
C57BL6 mice; C57BL6 mice, 7-d treatment, immunoblotting
  renal PRR expression: suppressed consistently
C57BL6 mice; C57BL6 mice, 7-d treatment, control 4.08±0.19, P<0.05
  food intake: 3.54 ± 0.15 g
C57BL6 mice; C57BL6 mice, 7-d treatment, control 32.36±0.63, P<0.05
  body weight: 28.61 ± 0.36 g
C57BL6 mice; TO901317 alone, 7 d
  urinary renin activity (generation of AngI): suppressed
C57BL6 mice; TO901317 alone, 7 d, ELISA
  urinary prorenin/renin excretion: suppressed
C57BL6 mice; TO901317 alone, 7 d, immunoblotting
  renal AQP2 expression: significantly reduced
